# Columns and labels:
# spleen cells = assay: Cytokine levels in culture supernatants of spleen cells from MCMV-infected mice (ELISA); assay type: in vivo; conditions: BALB/c mice with MCMV infection, GCV compared with Thymosin alpha 1
# From the text: Arrow indicates an inducible band. Lane 1, uninfected cells; lane 2, MCMV-infected; lane 3, Thymosin alpha 1 treated; lane 4, MCMV+Thymosin alpha 1 treated. (FIG. 3b) Cytokine production (pg/ml) by DC subsets treated as above. Bars indicate the standard errors. *P<0.05, cytokine production in MCMV-infected DC vs uninfected DC. **P<0.05, Thymosin alpha 1-treated vs untreated DC. (FIG. 3c) Cytokine production in mice during MCMV infection. Cytokine levels (pg/ml) in culture supernatants of spleen cells from mice with MCMV infection and treated for a week with Thymosin alpha 1 or GCV. *P<0.05, treated vs untreated mice. ND, not done.
# Viral load (FIG. 4a) and cytokine production (FIG. 4b) in C57BL6, TLR4−/−, TLR9−/− and MyD88−/− mice infected with 5×10^5 PFU of MCMV and treated with 200 μg/kg Tα1 for a week. Virus titers, expressed as log 10, were quantified on MEF cells by standard plaque assay on infected tissues removed a week after infection and treatment. Cytokine (pg/ml) levels in culture supernatants of spleen cells were determined by ELISA assay. Bars indicate the standard errors. *P<0.05, Tα1-treated vs untreated mice. Results are representative of 3 independent experiments.
# (§1) BALB/c or C57BL6 mice were infected with 10^5 or 5×10^5 PFU of MCMV, respectively. Virus titers, expressed as log 10, were quantified on MEF cells by standard plaque assay on lung tissues removed 7 days after the infection. Tα1 (200 μg/kg/daily for a week) and/or GCV (40 mg/kg, three times a week) were administered beginning the day of the infection. Cytokine (pg/ml) levels in culture supernatants of spleen cells (7 days) were determined by ELISA assay. Bars indicate the standard errors. *P<0.05, treated vs untreated mice. Results are representative of 3 independent experiments.
# Quantification of cytokines by ELISA and ELISPOT assays. The levels of cytokines in the culture supernatants of mitogen-stimulated spleen cells (48 h stimulation with 10 μg/ml ConA) or MCMV-pulsed DC (24 h) were determined by ELISA (R&D Systems and PBL, Biomedical Lab, Milan, Italy). The detection limits (pg/ml) of the assays were <16 for IL-12 p70, <10 for IFN-., <3 for IL-10 and <10 for IFN-a. IFN-.-producing NK cells were enumerated by ELISPOT assay on purified NK (Virus Res. 2003; 98:17-467 25). Results are expressed as the mean number of cytokine-producing cells (±SE) per 10^5 cells, calculated using replicates of serial 2-fold dilutions of cells.
# MCMV = MCMV infection in mice, virus titers by standard plaque assay on tissues; assay type: in vivo, BALB/c and C57BL6 mice
# Description: BALB/c (FIG. 1a) and C57BL6 (FIG. 1b) mice were infected with 1×10^5 or 5×10^5 PFU of MCMV, respectively. Virus titers were quantified on MEF cells by standard plaque assay on tissues removed at different times (FIG. 1a) or a week after infection (FIG. 1b) and expressed as log 10(mean±standard errors, SE). Thymosin alpha 1 (200 μg/kg given for 7 or 14 days) and GCV (40 mg/kg given three times a week) were administered beginning the day of the infection. Controls received the scrambled peptide. Results are representative of 4 independent experiments. Bars indicate the standard errors. *P<0.05, viral load between treated and untreated mice.
# as §1
# Inbred C57BL6 and BALB/c mice were injected intraperitoneally (i.p.) with 1×10^5 (BALB/c) or 5×10^5 (C57BL6) plaque forming units (PFU) of MCMV. Virus titers were quantified on MEF cells by standard plaque assay on tissues removed a day after treatment. Treatments were as follow: Tα1 ([…]) and PTX3 (1 mg/k/ip) (SIGMA-Tau, Pomezia, Rome, Italy) were given daily for 7 consecutive days beginning the day of the infection. Controls received the scrambled peptide. All organs from uninfected animals were negative viruses. Virus titers are expressed as log 10 (mean±standard errors, SE).
# Mice. Wild-type (WT) inbred C57BL6 and BALB/c mice, 8 to 12 weeks old, were purchased from Charles River Breeding Laboratories (Calco, Italy). Pairs of homozygous TLR9-(TLR9−/−), TLR4-(TLR4−/−), and MyD88-(MyD88−/−)-deficient mice (on the C57BL6 background), were bred under specific pathogen-free conditions at the breeding facilities of the University of Perugia, Perugia, Italy. Experiments were performed following protocols approved by the institutional animal committee and in accordance with European Economic Community Council Directive as well as institutional animal care and use guidelines.
# Virus, infection and treatments. Stocks of Smith strain MCMV salivary gland extracts were prepared from BALB/c mice and titered in a standard plaque assay on BALB/c murine embryonic fibroblast (MEF) cells (J. Gen. Virol. 2002; 83:2983-2993). Mice were injected intraperitoneally (i.p.) with 1×10^5 (C57BL6) plaque forming units (PFU) of MCMV. Virus titers were quantified on MEF cells by standard plaque assay on tissues removed at different times. Treatments were as follows: Thymosin alpha 1 and the scrambled polypeptide (both from SciClone Pharmaceuticals, San Mateo, CA) were supplied as purified (the endotoxin levels were <0.03 pg/ml, by a standard limulus lysate assay) sterile, lyophilized, acetylated polypeptide. The sequences were as follows: Ac-Ser-Asp-Ala-Ala-Val-Asp-Thr-Ser-Ser-Glu -Ile-Thr-Thr-Lys-Asp-Leu-Lys-Glu-Lys-Lys-Glu-Val-Glu-Glu-Ala-Glu-Asn-O (Tα1) SEQ ID NO:1 and Ac-Ala-Lys-Ser-Asp-Val-Lys-Ala-Glu-Thr-Ser-Ser-Glu-Ile-Asp-Thr-Thr-Glu-Leu -Asp-Glu-Lys-Val-Glu-Val-Lys-Ala-Asn-Glu-OH (scrambled peptide) SEQ ID NO:2. The lyophilized powders were reconstituted in sterile water and 200 μg/kg/i.p. were given daily for 7 or 14 consecutive days beginning the day of the infection. Gancyclovir (GCV) (Cymevene; from Recordati, Milan, Italy) was administered at 40 mg/kg/i.p. three times a week, every other day, beginning 6 h after infection. Controls received the scrambled peptide or the diluent alone.
# Plaque assay. Plaque assay was determined on cells grown to subconfluence and incubated with serially diluted virus samples for 2 h at 37° C. (10). […]
compound,measurement,setting,value
"Nc1nc(O)c2ncn(COC(CO)CO)c2n1 [GCV, Ganciclovir]","IFN-a, IFN-. and IL-12p70 production",spleen cells,comparable to those obtained with GCV
Ac-Ala-Lys-Ser-Asp-Val-Lys-Ala-Glu-Thr-Ser-Ser-Glu-Ile-Asp-Thr-Thr-Glu-Leu -Asp-Glu-Lys-Val-Glu-Val-Lys-Ala-Asn-Glu-OH (Ac-AKSDVKAETSSEIDTTELDEKVEVKANE-OH) [scrambled peptide],viral load in different visceral organs,"MCMV; 200 μg/kg for 7 days, both susceptible (BALB/c) and resistant (C57BL6) mice",not
PTX3: long pentraxin protein with N-terminal domain and C-terminal domain similar to short pentraxins; from SIGMA-Tau,viral titers in the lung,"MCMV; PTX3 alone, 1 mg/k/ip daily for 7 days, BALB/c or C57BL6 mice",decreased the viral titers

# Source: patent publication US8337828B2, “Use of thymosin alpha 1, alone or in combination with PTX3 or ganciclovir, for the treatment of cytomegalovirus infection” (priority 2006, dated 2012)
